Values of other authors as cited in patent US20100267960A1, “PROCESS FOR PREPARING PRAMIPEXOLE DIHYDROCHLORIDE TABLETS” (Boehringer Ingelheim Pharma GmbH & Co. KG, priority 2006, published 2010).
Structures can show the parent of a compound that is named as a salt.

Tests used:
[1] = not given; remark: listed apart in the source

SMILES	light sensitivity in solution (in solution)	stability in the solid state (solid state)	solubility in buffer media ([1]; buffer media, between pH 2 and pH 7.4)	Water solubility ([1]; water)	hygroscopicity (solid)
CCCN[C@H]1CCc2nc(N)sc2C1 [Pramipexole, (S)-2-amino-4,5,6,7-tetrahydro-6-(propylamino)benzothiazole]	light sensitive	very stable			
CCCN[C@H]1CCc2nc(N)sc2C1 [Pramipexole dihydrochloride monohydrate, pramipexole dihydrochloride monohydrate]			above 10 mg/mL	more than 20 mg/mL	not hygroscopic
